# From article PMC4780440 (Organic & biomolecular chemistry, 2015)
# “Also recorded” adds a separate entry of the source. Square brackets hold non-standard residues; d marks the D form. Peptide text beside a SMILES is read from it. * marks the point of attachment. X1 = O=C(O)CN(CCN(CC(=O)O)CC(=O)O)CCN(CC(=O)O)CC(=O)NCCCOCCOCCOCCCNC(=O)COCC(=O)*; Nle = CCCC[C@H](N)C(=O)O
# Columns and labels:
# hMC4R [1] = molecular target: T1, hMC4R (Homo sapiens, UniProt P32245); experiment: Competitive binding assay against TRF probe 19, six-well plate protocol; conditions: for Relative Potency: compared to the monovalent MSH(4) construct with the same scaffold core; for inhibition of the binding and uptake of probe 19: over the concentration range tested (10 μM–0.10 nM), probe 19 20 nM; for Ki lower than / inhibition higher than the corresponding monovalent molecule: divalent versus monovalent, against probe 19
# T1 sequence (P32245 whole entry): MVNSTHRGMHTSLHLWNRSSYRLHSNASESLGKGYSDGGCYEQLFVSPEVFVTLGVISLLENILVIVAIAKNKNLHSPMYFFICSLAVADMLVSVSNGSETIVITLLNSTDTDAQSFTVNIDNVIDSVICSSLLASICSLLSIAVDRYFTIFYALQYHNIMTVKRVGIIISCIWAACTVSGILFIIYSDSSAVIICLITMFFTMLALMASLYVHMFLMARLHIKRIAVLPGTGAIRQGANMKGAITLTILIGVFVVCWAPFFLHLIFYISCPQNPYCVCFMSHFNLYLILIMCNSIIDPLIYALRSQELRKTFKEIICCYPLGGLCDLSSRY
# hMC4R [2] = molecular target: T1, hMC4R; conditions: saturation binding assays using older protocol (96-well plates); ref [14]; cited from earlier work
structure (smiles),measurement,setting,value
"N=C(N)NCCC[C@H](NC(=O)[C@@H](Cc1ccccc1)NC(=O)[C@H](Cc1c[nH]cn1)NC(=O)CCCCCn1cc(COc2cc(OCc3cn(CCCCCC(=O)N[C@@H](CO)C(N)=O)nn3)cc(OCc3cn(CCCCCC(=O)N[C@@H](CO)C(N)=O)nn3)c2)nn1)C(=O)N[C@@H](Cc1c[nH]c2ccccc12)C(N)=O [Compound 14a, 6,6′-(4,4′-(((5-((1-((6S,9R,12S)-12-((1H-Imidazol-4-yl)methyl)-1-amino-6-(((S)-1-amino-3-(1H-indol-3-yl)-1-oxopropan-2-yl)carbamoyl)-9-benzyl-1-imino-8,11,14-trioxo-2,7,10,13-tetraazanonadecan-19-yl)-1H-1,2,3-triazol-4-yl)methoxy)-1,3-phenylene)bis(oxy))bis(methylene))bis(1H-1,2,3-triazole-4,1-diyl))bis(N-(1-amino-3-hydroxy-1-oxopropan-2-yl)hexanamide)]",Ki,hMC4R [1],990 ± 140 nM
same,Relative Potency,hMC4R [1],1
"NC(=O)[C@H](CO)NC(=O)CCCCCn1cc(COc2cc(OCc3cn(CCCCCC(=O)N[C@@H](CO)C(N)=O)nn3)cc(OCc3cn(CCCCCC(=O)N[C@@H](CO)C(N)=O)nn3)c2)nn1 [Compound 12a, 6,6′,6″-(4,4′,4″-((Benzene-1,3,5-triyltris(oxy))tris(methylene))tris(1H-1,2,3-triazole-4,1-diyl))tris(N-((S)-1-amino-3-hydroxy-1-oxopropan-2-yl)hexanamide)]",inhibition of the binding and uptake of probe 19,hMC4R [1],did not inhibit; also recorded: not competitive inhibitors
"N=C(N)NCCC[C@H](NC(=O)[C@@H](Cc1ccccc1)NC(=O)[C@H](Cc1c[nH]cn1)NC(=O)CCCCCn1cc(CN(Cc2cn(CCCCCC(=O)N[C@@H](Cc3c[nH]cn3)C(=O)N[C@H](Cc3ccccc3)C(=O)N[C@@H](CCCNC(=N)N)C(=O)N[C@@H](Cc3c[nH]c4ccccc34)C(N)=O)nn2)Cc2cn(CCCCCC(=O)N[C@@H](Cc3c[nH]cn3)C(=O)N[C@H](Cc3ccccc3)C(=O)N[C@@H](CCCNC(=N)N)C(=O)N[C@@H](Cc3c[nH]c4ccccc34)C(N)=O)nn2)nn1)C(=O)N[C@@H](Cc1c[nH]c2ccccc12)C(N)=O [Compound 16c, 6,6′,6″-(4,4′,4″-(Nitrilotris(methylene))tris(1H-1,2,3-triazole-4,1-diyl))tris(N-((S)-1-(((R)-1-(((S)-1-(((S)-1-amino-3-(1H-indol-3-yl)-1-oxopropan-2-yl)amino)-5-guanidino-1-oxopentan-2-yl)amino)-1-oxo-3-phenylpropan-2-yl)amino)-3-(1H-imidazol-4-yl)-1-oxopropan-2-yl)hexanamide)]",Ki,hMC4R [1],36 ± 4 nM
same,Relative Potency,hMC4R [1],61
"N=C(N)NCCC[C@H](NC(=O)[C@@H](Cc1ccccc1)NC(=O)[C@H](Cc1c[nH]cn1)NC(=O)CCCCCn1cc(COc2cc(OCc3cn(CCCCCC(=O)N[C@@H](CO)C(N)=O)nn3)cc(OCc3cn(CCCCCC(=O)N[C@@H](Cc4c[nH]cn4)C(=O)N[C@H](Cc4ccccc4)C(=O)N[C@@H](CCCNC(=N)N)C(=O)N[C@@H](Cc4c[nH]c5ccccc45)C(N)=O)nn3)c2)nn1)C(=O)N[C@@H](Cc1c[nH]c2ccccc12)C(N)=O [Compound 14b, 6,6′-(4,4′-(((5-((1-(6-((1-Amino-3-hydroxy-1-oxopropan-2-yl)amino)-6-oxohexyl)-1H-1,2,3-triazol-4-yl)methoxy)-1,3-phenylene)bis(oxy))bis(methylene))bis(1H-1,2,3-triazole-4,1-diyl))bis(N-((S)-1-(((R)-1-(((S)-1-(((S)-1-amino-3-(1H-indol-3-yl)-1-oxopropan-2-yl)amino)-5-guanidino-1-oxopentan-2-yl)amino)-1-oxo-3-phenylpropan-2-yl)amino)-3-(1H-imidazol-4-yl)-1-oxopropan-2-yl)hexanamide)]",Ki,hMC4R [1],91 ± 13 nM
same,Relative Potency,hMC4R [1],11
same,Ki lower than / inhibition higher than the corresponding monovalent molecule,hMC4R [1],11 fold
"NC(=O)[C@H](CO)NC(=O)CCCCCn1cc(CN(Cc2cn(CCCCCC(=O)N[C@@H](CO)C(N)=O)nn2)Cc2cn(CCCCCC(=O)N[C@@H](CO)C(N)=O)nn2)nn1 [Compound 15a, 6,6′,6″-(4,4′,4″-(Nitrilotris(methylene))tris(1H-1,2,3-triazole-4,1-diyl))tris(N-((S)-1-amino-3-hydroxy-1-oxopropan-2-yl)hexanamide)]",inhibition of the binding and uptake of probe 19,hMC4R [1],did not inhibit; also recorded: not competitive inhibitors
"N=C(N)NCCC[C@H](NC(=O)[C@@H](Cc1ccccc1)NC(=O)[C@H](Cc1c[nH]cn1)NC(=O)CCCCCn1cc(CN(Cc2cn(CCCCCC(=O)N[C@@H](CO)C(N)=O)nn2)Cc2cn(CCCCCC(=O)N[C@@H](Cc3c[nH]cn3)C(=O)N[C@H](Cc3ccccc3)C(=O)N[C@@H](CCCNC(=N)N)C(=O)N[C@@H](Cc3c[nH]c4ccccc34)C(N)=O)nn2)nn1)C(=O)N[C@@H](Cc1c[nH]c2ccccc12)C(N)=O [Compound 16b, 6,6′-(4,4′-((((1-(6-(((S)-1-Amino-3-hydroxy-1-oxopropan-2-yl)amino)-6-oxohexyl)-1H-1,2,3-triazol-4-yl)methyl)azanediyl)bis(methylene))bis(1H-1,2,3-triazole-4,1-diyl))bis(N-((S)-1-(((R)-1-(((S)-1-(((S)-1-amino-3-(1H-indol-3-yl)-1-oxopropan-2-yl)amino)-5-guanidino-1-oxopentan-2-yl)amino)-1-oxo-3-phenylpropan-2-yl)amino)-3-(1H-imidazol-4-yl)-1-oxopropan-2-yl)hexanamide)]",Ki,hMC4R [1],69 ± 12 nM
same,Relative Potency,hMC4R [1],32
same,Ki lower than / inhibition higher than the corresponding monovalent molecule,hMC4R [1],32 fold
"N=C(N)NCCC[C@H](NC(=O)[C@@H](Cc1ccccc1)NC(=O)[C@H](Cc1c[nH]cn1)NC(=O)CCCCCn1cc(CN2CCN(Cc3cn(CCCCCC(=O)N[C@@H](Cc4c[nH]cn4)C(=O)N[C@H](Cc4ccccc4)C(=O)N[C@@H](CCCNC(=N)N)C(=O)N[C@@H](Cc4c[nH]c5ccccc45)C(N)=O)nn3)CCN(Cc3cn(CCCCCC(=O)N[C@@H](Cc4c[nH]cn4)C(=O)N[C@H](Cc4ccccc4)C(=O)N[C@@H](CCCNC(=N)N)C(=O)N[C@@H](Cc4c[nH]c5ccccc45)C(N)=O)nn3)CC2)nn1)C(=O)N[C@@H](Cc1c[nH]c2ccccc12)C(N)=O [Compound 18, 6,6′,6″-(4,4′,4″-((1,4,7-Triazonane-1,4,7-triyl)tris(methylene))tris(1H-1,2,3-triazole-4,1-diyl))tris(N-((S)-1-(((R)-1-(((S)-1-(((S)-1-amino-3-(1H-indol-3-yl)-1-oxopropan-2-yl)amino)-5-guanidino-1-oxopentan-2-yl)amino)-1-oxo-3-phenylpropan-2-yl)amino)-3-(1H-imidazol-4-yl)-1-oxopropan-2-yl)hexanamide)]",Ki,hMC4R [1],25 ± 4 nM
"CCCC[C@H](NC(=O)[C@H](CO)NC(=O)COCC(=O)NCCCOCCOCCOCCCNC(=O)CN(CCN(CCN(CC(=O)O)CC(=O)O)CC(=O)O)CC(=O)O)C(=O)N[C@@H](CCC(=O)O)C(=O)N[C@@H](Cc1c[nH]cn1)C(=O)N[C@H](Cc1ccccc1)C(=O)N[C@@H](CCCNC(=N)N)C(=O)N[C@@H](Cc1c[nH]c2ccccc12)C(N)=O [Compound 19, Eu-DTPA-PEGO-MSH(7)-NH2] (X1-S[Nle]EH[dF]RW-NH2)",Kd,hMC4R [2],27 ± 4 nM
